Data from patent US20160067347A1, “APJ RECEPTOR AGONISTS AND USES THEREOF” (AMGEN INC., priority 2012, published 2016).
One block for each molecule: values may come before it. Where a SMILES comes first, the peptide text is derived from it. Where no end group is shown, it is not given here. [ ]: non-standard residue; d: D form. Oic = O=C(O)[C@@H]1C[C@@H]2CCCC[C@@H]2N1; Phe(4-Cl) = N[C@@H](Cc1ccc(Cl)cc1)C(=O)O; 1Nal = N[C@@H](Cc1cccc2ccccc12)C(=O)O; hArg = N=C(N)NCCCC[C@H](N)C(=O)O; Cha = N[C@@H](CC1CCCCC1)C(=O)O; 20K‑mPEG = 20 kDa methoxy-PEG; 40K‑mPEG = 40 kDa methoxy-PEG; pGlu = O=C1CC[C@@H](C(=O)O)N1; Nle = CCCC[C@H](N)C(=O)O; Mpa = O=C(O)CCS

How the values were obtained:
human APJ = biological target: T1, human APJ (Homo sapiens, UniProt P35414); experiment: cAMP assay, stable CHO cell line expressing human APJ; type: cell-based; conditions: FIG. 5; cAMP seen with either human or rat APJ stable cell lines
T1 construct: expressed in transfected cells
T1 sequence (P35414 1-380): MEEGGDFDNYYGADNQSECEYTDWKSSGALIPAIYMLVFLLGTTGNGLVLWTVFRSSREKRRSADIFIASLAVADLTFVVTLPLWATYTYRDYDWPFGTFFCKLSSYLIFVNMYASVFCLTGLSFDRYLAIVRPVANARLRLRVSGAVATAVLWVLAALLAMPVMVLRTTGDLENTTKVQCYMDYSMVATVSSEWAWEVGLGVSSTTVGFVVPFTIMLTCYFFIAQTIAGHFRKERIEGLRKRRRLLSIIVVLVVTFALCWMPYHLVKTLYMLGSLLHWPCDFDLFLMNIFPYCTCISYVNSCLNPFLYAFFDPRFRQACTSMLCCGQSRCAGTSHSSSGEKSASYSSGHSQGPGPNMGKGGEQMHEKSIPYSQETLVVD
Protocol: Stable CHO cell lines expressing APJ were used for cAMP assays. The cells were incubated with stimulation buffer containing HANK's buffer, forskolin and 0.5 mM IBMX in the absence or presence of various concentrations' of peptides at 37° C. for 45 min. The cAMP level was determined using a cyclic AMP kit (DiscoverX) according to the manufacturer's instructions.

rat APJ receptor [1] = biological target: T2, rat APJ receptor (Rattus norvegicus, UniProt Q9JHG3); experiment: [35S]GTPγS assay, membranes from stable cell lines, rat APJ; type: biochemical; conditions: FIG. 10; effect of PEG size (20 kDa vs 40 kDa)
T2 construct: expressed in transfected cells; CHO is named only for the cAMP assay
T2 sequence (Q9JHG3 1-377): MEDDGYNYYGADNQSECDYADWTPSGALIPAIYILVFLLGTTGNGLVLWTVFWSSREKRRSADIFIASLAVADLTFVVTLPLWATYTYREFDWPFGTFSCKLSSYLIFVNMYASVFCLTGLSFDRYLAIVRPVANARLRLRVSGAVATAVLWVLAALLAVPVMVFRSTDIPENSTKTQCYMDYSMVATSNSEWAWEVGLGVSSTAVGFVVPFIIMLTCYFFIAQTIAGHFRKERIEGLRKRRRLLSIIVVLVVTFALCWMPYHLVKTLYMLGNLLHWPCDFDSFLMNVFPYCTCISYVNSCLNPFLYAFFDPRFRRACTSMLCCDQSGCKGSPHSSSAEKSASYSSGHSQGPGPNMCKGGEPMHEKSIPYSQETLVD
Protocol: To assay for GTP, membranes were prepared from stable cell lines and used to determine the efficacy/potency of the modified peptides. The optimal experimental conditions for the concentrations of GDP, MgCl2 and NaCl in the assay buffer were initially determined. The membranes were incubated with modified peptides in the assay buffer. The reaction was initiated by addition of [^35S] GTPγS in the absence or presence of peptides and incubated at room temperature for 90 min. […] Bound [^35S] GTPγS was separated from free radiolabel by filtration. The filter bound radioactivity was determined by liquid scintillation counting.
A series of PEGylated peptides were prepared and screened in vitro to explore the effects of PEG size and peptide valency on potency and efficacy in the GTPγS assay. In the assay 20 kDA and 40 kDA PEG were compared (FIG. 10).
Additionally mono- and multivalent bis, and tetrakis-peptide conjugated PEGS were prepared to explore peptide valency. […]

[2] = tested on: isolated Langendorff rat heart; experiment: Langendorff isolated rat heart, hemodynamic cardiac function; conditions: control rats, FIGS. 7 and 8
Excerpt: To assess the hemodynamic cardiac function of the peptides a Langendorff isolated heart system was used. The isolated heart from rat provides broad spectrum of measurements that can include biochemical, metabolic, morphological and physiological indices. The limitations/advantages of the method include absence of neurohormonal influences, neural regulation and high coronary flows. Such limitations, however, are offset by the ability to study direct cardiac effects without systemic circulation and a host of peripheral interactions.
The reproducibility and accuracy of measurements and relatively low costs over in vivo studies for profiling drugs outweigh any limitations of this method. Therefore, this method provides excellent dose-response relationship and sheds critical insight into the pharmacological and physiological properties of the molecules of interest.
The animals were anesthetized upon administration of 50-100 mg/kg dose of sodium pentobarbital for rat via the intraperitoneal route. The heart was excised and gently cradled between fingers to avoid injury followed by lifting slightly before incising the aorta, vena cava and pulmonary vessels Immediately after excision of the heart with aorta, the heart was mounted onto the cannula in the Langendorff apparatus via the aorta. The heart was perfused with modified oxygenated Krebs-Henseleit buffer pH7.5 and equilibrated with 95% O2/5% CO2 at 37° C. The perfusion was performed at a constant flow of 10 ml/min and paced at 300 bpm. The pressure was measured through a pressure sensing balloon catheter inserted in the LV cavity. The intrinsic inotropy (force of muscle contraction) and lusitropy (cardiac relaxation) effects of the heart were assessed by dp/dtmax and dp/dtmin.
These figures illustrate improvement in both systolic and diastolic function of normal hearts with peptides of SEQ ID NOs: 23 and 24.

in vitro = conditions: rat
Protocol: Apelin peptides were spiked into freshly prepared mouse, rat, dog and human EDTA plasma to a final concentration of 5 μM. The plasma samples were then incubated at 37° C. over a period of 4 hr. Up to 8 time points were sampled to facilitate estimation of in vitro half life in plasma matrices. In a typical experiment, aliquot of 100 μL of plasma sample was taken from the incubation vial, followed by addition of 300 μL of MeOH containing internal standard. The quenched sample was centrifuged at 5500 g for 15 min after 15 min vortex in room temperature. The supernatant was then analyzed by high resolution LC-MS.

isolated cardiomyocyctes = conditions: isolated cardiomyocytes; Barnes et al.; cited from earlier work
rat APJ receptor [3] = biological target: T3, rat APJ receptor (rat, UniProt Q9JHG3 1-377); experiment: cell-based or functional assay
T3 sequence (looked up): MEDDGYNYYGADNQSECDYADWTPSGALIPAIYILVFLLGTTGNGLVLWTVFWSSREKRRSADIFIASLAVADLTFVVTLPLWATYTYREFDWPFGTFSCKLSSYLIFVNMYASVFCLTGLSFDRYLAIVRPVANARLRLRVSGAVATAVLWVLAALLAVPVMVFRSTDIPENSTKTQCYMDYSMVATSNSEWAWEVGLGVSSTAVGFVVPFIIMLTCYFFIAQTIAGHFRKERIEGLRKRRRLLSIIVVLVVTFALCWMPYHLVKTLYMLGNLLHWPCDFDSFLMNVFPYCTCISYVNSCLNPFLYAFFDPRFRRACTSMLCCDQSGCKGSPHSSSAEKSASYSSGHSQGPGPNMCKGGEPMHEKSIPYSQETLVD

Molecule: 3-((2-(3-(mPEG(20kDa))propylamino)-2-oxoethyl)thio)propanamide-[hArg68;Cha69;Oic74;Nle75;4-Cl-Phe77]Apelin-17(61-77) [SEQ ID NO: 24]
- agonist activity relative to pyr apelin-13 (SEQ ID NO: 128) (human APJ): potent and act as a full agonist
- EC50 (rat APJ receptor [1]): 0.252 nM
- dp/dtmax [2]: dose dependent increase
- dp/dtmin [2]: decrease
- systolic pressure [2]: increases

Molecule: {Thiopropionyl(20K-mPEG)}LLRP[hArg][Cha]SHKG[Oic][Nle]P[4-Cl—F]{FreeAcid} ({mPEG 20 kDa}-[Mpa]LLRP[hArg][Cha]SHKG[Oic][Nle]P[Phe(4-Cl)]-OH) [SEQ ID NO: 124]
- agonist activity relative to pyr apelin-13 (SEQ ID NO: 128) (human APJ): potent and act as a full agonist

Molecule: CCCC[C@H](NC(=O)[C@@H]1C[C@@H]2CCCC[C@@H]2N1C(=O)CNC(=O)[C@H](CCCCN)NC(=O)[C@H](Cc1cn(CCOCCOCCOCCOCCOCCOCCOCCOCCOCCOCCN)nn1)NC(=O)[C@H](Cc1ccccc1)NC(=O)[C@H](CC1CCCCC1)NC(=O)[C@H](CCCCNC(=N)N)NC(=O)[C@@H]1CCCN1C(=O)[C@H](CCCNC(=N)N)NC(=O)[C@@H]1CCC(=O)N1)C(=O)N[C@H](Cc1ccccc1)C(=O)O [compound 33]
- remaining at 1 h, 5 μM (in vitro; plasma): 66%

- remaining at 1 h, 5 μM (in vitro; rat EDTA plasma): 63%
Molecule: CCCC[C@H](NC(=O)[C@@H]1CCCN1C(=O)CNC(=O)[C@H](CCCCN)NC(=O)[C@H](Cc1c[nH]cn1)NC(=O)[C@H](CO)NC(=O)[C@H](CC1CCCCC1)NC(=O)[C@H](CCCCNC(=N)N)NC(=O)[C@@H]1CCCN1C(=O)[C@H](CCCNC(=N)N)NC(=O)[C@@H]1CCC(=O)N1)C(=O)N[C@@H](Cc1cccc2ccccc12)C(=O)O [compound 31] ([pGlu]RP[hArg][Cha]SHKGP[Nle][1Nal]-OH; C-terminus assumed)

Molecule: apelin
- increase in sarcomere shortening (isolated cardiomyocyctes): up to 140%

- EC50 (GTPγS assay) (rat APJ receptor [3]): 1.37 nM
- potency (GTPγS assay), fold reduction relative to 20 kDA (SEQ ID NO: 24) (rat APJ receptor [3]): 5 fold
Molecule: {40K‑mPEG-Thiopropionyl}-KFRRQRP[hArg][Cha]SHKG[Oic][Nle]P[Phe(4-Cl)]-OH [{Thiopropionyl(40K-mPEG)}KFRRQRP[hArg][Cha]SHKG[Oic][Nle]P[4-Cl-F]{FreeAcid}]

- EC50 (GTPγS assay) (rat APJ receptor [3]): 0.252 nM
Molecule: {20K‑mPEG-Thiopropionyl}-KFRRQRP[hArg][Cha]SHKG[Oic][Nle]P[Phe(4-Cl)] [Thiopropionyl(20K-mPEG)-KFRRQRP[hArg][Cha]SHKG[Oic][Nle]P[4-Cl-F]]
